# Measurements reported in the NIST ThermoML archive (doi:10.1021/acs.jced.5b00980).
# ± gives the expanded uncertainty stated by the source.
# Assay: activity coefficient (dimensionless); of the first substance listed, at infinite dilution; xn = mol fraction of the nth substance listed
# Conditions: 100 kPa, Liquid, Chromatography, x1 = 0
smiles,measurement,setting,value
CC(C)OC(C)C [diisopropyl ether] + CCCC[P+](CC)(CCCC)CCCC.CCOP(=O)([O-])OCC,activity coefficient,328.15 K,2.82 ± 0.19
same,activity coefficient,338.15 K,2.75 ± 0.19
same,activity coefficient,348.15 K,2.69 ± 0.18
same,activity coefficient,358.15 K,2.65 ± 0.18
same,activity coefficient,368.15 K,2.59 ± 0.18
C=CCCCCCCCC [1-decene] + CCCC[P+](CC)(CCCC)CCCC.CCOP(=O)([O-])OCC,activity coefficient,328.15 K,5.2 ± 0.35
same,activity coefficient,338.15 K,5.06 ± 0.34
same,activity coefficient,348.15 K,4.93 ± 0.34
same,activity coefficient,358.15 K,4.81 ± 0.33
same,activity coefficient,368.15 K,4.69 ± 0.32
C#CCCCCCC [1-octyne] + CCCC[P+](CC)(CCCC)CCCC.CCOP(=O)([O-])OCC,activity coefficient,328.15 K,1.17 ± 0.07
same,activity coefficient,338.15 K,1.22 ± 0.08
same,activity coefficient,348.15 K,1.28 ± 0.08
same,activity coefficient,358.15 K,1.33 ± 0.09
same,activity coefficient,368.15 K,1.38 ± 0.09
C1CCCCCC1 [cycloheptane] + CCCC[P+](CC)(CCCC)CCCC.CCOP(=O)([O-])OCC,activity coefficient,328.15 K,2.48 ± 0.17
same,activity coefficient,338.15 K,2.42 ± 0.16
same,activity coefficient,348.15 K,2.37 ± 0.16
same,activity coefficient,358.15 K,2.32 ± 0.16
same,activity coefficient,368.15 K,2.27 ± 0.15
C1CCCC1 [cyclopentane] + CCCC[P+](CC)(CCCC)CCCC.CCOP(=O)([O-])OCC,activity coefficient,328.15 K,1.83 ± 0.12
same,activity coefficient,338.15 K,1.8 ± 0.12
same,activity coefficient,348.15 K,1.77 ± 0.12
same,activity coefficient,358.15 K,1.74 ± 0.12
same,activity coefficient,368.15 K,1.71 ± 0.11
"CCC(C)(C)C [2,2-dimethylbutane] + CCCC[P+](CC)(CCCC)CCCC.CCOP(=O)([O-])OCC",activity coefficient,328.15 K,3.34 ± 0.23
same,activity coefficient,338.15 K,3.27 ± 0.22
same,activity coefficient,348.15 K,3.2 ± 0.22
same,activity coefficient,358.15 K,3.14 ± 0.21
same,activity coefficient,368.15 K,3.08 ± 0.21
C=CCCCC [hex-1-ene] + CCCC[P+](CC)(CCCC)CCCC.CCOP(=O)([O-])OCC,activity coefficient,328.15 K,2.59 ± 0.18
same,activity coefficient,338.15 K,2.54 ± 0.17
same,activity coefficient,348.15 K,2.49 ± 0.17
same,activity coefficient,358.15 K,2.44 ± 0.17
same,activity coefficient,368.15 K,2.4 ± 0.16
CCc1ccccc1 [ethylbenzene] + CCCC[P+](CC)(CCCC)CCCC.CCOP(=O)([O-])OCC,activity coefficient,328.15 K,1.55 ± 0.1
same,activity coefficient,338.15 K,1.52 ± 0.1
same,activity coefficient,348.15 K,1.49 ± 0.1
same,activity coefficient,358.15 K,1.46 ± 0.1
same,activity coefficient,368.15 K,1.44 ± 0.09
C=Cc1ccccc1 [styrene] + CCCC[P+](CC)(CCCC)CCCC.CCOP(=O)([O-])OCC,activity coefficient,328.15 K,0.971 ± 0.061
same,activity coefficient,338.15 K,0.975 ± 0.061
same,activity coefficient,348.15 K,0.98 ± 0.061
same,activity coefficient,358.15 K,0.983 ± 0.062
same,activity coefficient,368.15 K,0.987 ± 0.062
c1ccsc1 [thiophene] + CCCC[P+](CC)(CCCC)CCCC.CCOP(=O)([O-])OCC,activity coefficient,328.15 K,0.58 ± 0.041
same,activity coefficient,338.15 K,0.587 ± 0.042
same,activity coefficient,348.15 K,0.595 ± 0.042
same,activity coefficient,358.15 K,0.601 ± 0.042
same,activity coefficient,368.15 K,0.607 ± 0.042
CC(C)=O [acetone] + CCCC[P+](CC)(CCCC)CCCC.CCOP(=O)([O-])OCC,activity coefficient,328.15 K,0.835 ± 0.054
same,activity coefficient,338.15 K,0.827 ± 0.053
same,activity coefficient,348.15 K,0.822 ± 0.053
same,activity coefficient,358.15 K,0.814 ± 0.053
same,activity coefficient,368.15 K,0.809 ± 0.052
CCCC(C)=O [pentan-2-one] + CCCC[P+](CC)(CCCC)CCCC.CCOP(=O)([O-])OCC,activity coefficient,328.15 K,1.03 ± 0.06
same,activity coefficient,338.15 K,1.03 ± 0.06
same,activity coefficient,348.15 K,1.02 ± 0.06
same,activity coefficient,358.15 K,1.02 ± 0.06
same,activity coefficient,368.15 K,1.01 ± 0.06
C=CCCCCCC [oct-1-ene] + CCCC[P+](CC)(CCCC)CCCC.CCOP(=O)([O-])OCC,activity coefficient,328.15 K,3.68 ± 0.25
same,activity coefficient,338.15 K,3.6 ± 0.25
same,activity coefficient,348.15 K,3.52 ± 0.24
same,activity coefficient,358.15 K,3.45 ± 0.23
same,activity coefficient,368.15 K,3.39 ± 0.23
CCCCCCCC [octane] + CCCC[P+](CC)(CCCC)CCCC.CCOP(=O)([O-])OCC,activity coefficient,328.15 K,4.87 ± 0.33
same,activity coefficient,338.15 K,4.74 ± 0.32
same,activity coefficient,348.15 K,4.6 ± 0.31
same,activity coefficient,358.15 K,4.47 ± 0.3
same,activity coefficient,368.15 K,4.37 ± 0.3
C=CCCCCC [1-heptene] + CCCC[P+](CC)(CCCC)CCCC.CCOP(=O)([O-])OCC,activity coefficient,328.15 K,3.06 ± 0.21
same,activity coefficient,338.15 K,3.01 ± 0.2
same,activity coefficient,348.15 K,2.97 ± 0.2
same,activity coefficient,358.15 K,2.93 ± 0.2
same,activity coefficient,368.15 K,2.89 ± 0.2
C1CCCCC1 [cyclohexane] + CCCC[P+](CC)(CCCC)CCCC.CCOP(=O)([O-])OCC,activity coefficient,328.15 K,2.17 ± 0.15
same,activity coefficient,338.15 K,2.13 ± 0.14
same,activity coefficient,348.15 K,2.09 ± 0.14
same,activity coefficient,358.15 K,2.05 ± 0.14
same,activity coefficient,368.15 K,2.01 ± 0.14
